Data from patent publication US7459522B2 (Affymax, Inc., priority 1999, dated 2008).
Bridge positions count the residues as written; N and C are the ends. Square brackets hold non-standard residues; d marks the D form. Ends that are not written are not given here. I, II: the chains in the order shown. 1Nal = N[C@@H](Cc1cccc2ccccc12)C(=O)O; βAla = NCCC(=O)O

How the values were obtained:
huEPOR = target: T1, huEPOR (Homo sapiens, UniProt P19235); assay: Ba/F3-huEPOR cell proliferation assay; assay type: cell-based; details: for EC50: concentration required to produce 50% of the maximal activity obtained with recombinant erythropoietin
T1 construct: expressed in transfected cells; host or cells: Ba/F3 (murine pro-B line, own knowledge) carrying huEPOR
T1 sequence (P19235 25-508): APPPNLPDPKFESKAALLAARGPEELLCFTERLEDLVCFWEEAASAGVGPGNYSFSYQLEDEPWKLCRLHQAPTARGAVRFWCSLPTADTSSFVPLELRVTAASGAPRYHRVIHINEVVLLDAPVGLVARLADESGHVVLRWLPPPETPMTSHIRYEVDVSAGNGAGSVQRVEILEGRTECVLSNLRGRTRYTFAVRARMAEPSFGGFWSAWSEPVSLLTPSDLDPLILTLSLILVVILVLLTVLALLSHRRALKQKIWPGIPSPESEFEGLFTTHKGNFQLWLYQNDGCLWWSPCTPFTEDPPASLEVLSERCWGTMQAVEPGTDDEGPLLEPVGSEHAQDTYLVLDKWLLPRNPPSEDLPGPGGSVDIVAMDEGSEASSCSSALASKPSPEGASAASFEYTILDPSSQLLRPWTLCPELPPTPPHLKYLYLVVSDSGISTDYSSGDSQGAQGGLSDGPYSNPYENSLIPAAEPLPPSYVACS
Text: The protocol for each assay is described in Wrighton et al. (1997) Nature Biotechnology 15:1261-1265, and in U.S. Pat. Nos. 5,773,569 and 5,830,851, both to Wrighton et al. and cited earlier herein.

EPO receptor = details: single class of binding sites, 300 to 600 per cell surface; cited from earlier work

Substance | EC50 (huEPOR) [nM] | other results
I: GGTYSCHFGPLT[1Nal]VCRPQGGK-NH2 / II: GGTYSCHFGPLT[1Nal]VCRPQGG (disulfide I:6-I:15, II:6-II:15; amide I:21-II:C) [Example 6] |  | in vitro bioactivity (huEPOR; FIG. 5, Isomer 1 compared with Isomer 2, Isomer 3 and the other compounds): noticeably higher
Erythropoietin [EPO] |  | Kd (EPO receptor): ~0.8 nM
I: GGTYSCHFGPLT[1Nal]VCRPQGG[βAla]K-NH2 / II: GGTYSCHFGPLT[1Nal]VCRPQGG[βAla] (amide I:22-II:C; cysteines drawn unpaired) [Example 3] | 5 | 
I: GGTYSCHFGPLT[1Nal]VCRPQGGK-NH2 / II: GGTYSCHFGPLT[1Nal]VCRPQGG (amide I:21-II:C; cysteines drawn unpaired) [Example 1] | 6 | 
